Assay results reported in patent publication US9555038B2, “Heterocycle-substituted tetracyclic compounds and methods of use thereof for the treatment of viral diseases” (Merck Sharp & Dohme Corp., priority 2013, dated 2017).
pIC50: −log10 of the molar value. Where two headings read alike, the source gives them in different places.

What was measured:
HCV replicon 1B = assay: Cell-based HCV Replicon Assay B, replicon 1B
Summary of the method: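 Replicon cells seeded in 5% FBS; compounds added 24 h later, then 3 days' incubation. Replicon RNA quantified by real-time RT-PCR with genotype-specific primers/probes (NS5B amplicon for 1b). EC50 = concentration raising CT by 1 over projected baseline.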

HCV replicon 2B = assay: Cell-based HCV Replicon Assay A, replicon 2B; conditions: for pIC50: read-out: 2B IC50, replicon 2B
Summary of the method: (§1)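 Replicon cells were seeded at 2000 cells/well with test compound in 10 serial dilutions, starting at 333.3 nM to 1.667 nM, in 0.5% DMSO and 5% FBS. On day 3, cells were washed and lysed, and replicon RNA was quantified by multiplex TaqMan RT-PCR normalised to cyclophilin.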

HCV replicon 1AY93H = assay: Cell-based HCV Replicon Assay A, replicon 1AY93H; conditions: for pIC50: read-out: 1A Y93H IC50, replicon 1AY93H
Summary of the method: as §1

HCV replicon 1A = assay: Cell-based HCV Replicon Assay A, replicon 1A
Summary of the method: as §1

HCV replicon 1AQ30D = assay: Cell-based HCV Replicon Assay B, replicon 1AQ30D; conditions: for pIC50: read-out: 1A Q30D IC50, replicon 1AQ30D; for IC50: Hepatitis C virus, read-out: 1A Q30D IC50 (nM), replicon 1AQ30D
Experimental: In an alternate assay (“Replicon Assay B”), 1000 cells were seeded per well in a 384-well collagen coated black plate from Greiner bio-one (Cat #781946) in 5% FBS. Inhibitors of this invention were added at 24 h post-seeding, and the plates were incubated for 3 days. Cells were subsequently lysed with Qiagen lysis buffer (Cat #1062731) to extract the RNA. HCV replicon RNA level was measured by real-time PCR using the RNA-to-CT kit from Applied Biosystem (Cat #4392656) and genotype-specific primers and probes. The amplicon was located within NS5B. The sequence of the PCR primers are as follows: 5B.2F, ATGGACAGGCGCCCTGA (SEQ. ID NO. 1); 5B.2R, […] (SEQ. ID NO. 2); the probe sequence was FAM-labeled CACGCCATGCGCTGCGG (SEQ. ID NO. 3). To detect genotype 1A the primer 1A F, TGCGGAACCGGTGAGTACA and 1A R, […] were used; the probe sequence was FAM-[…].
The real-time RT-PCR reactions were run on ABI PRISM 7900HT or Viia7 Sequence Detection System using the following program: 48° C. for 30 minutes, 95° C. for 10 minutes, 40 cycles of 95° C. for 15 sec, 60° C. for 1 minutes. The 50% effective concentration (EC50) was the drug concentration necessary to achieve an increase in the cycle threshold (CT) of 1 over the projected baseline CT.
Data was obtained for various compounds of the present invention using the methods described in the Example above, and is presented in the table immediately below. Data for replicons 1A, 1AY93H and 2B were obtained using Replicon Assay A and data for replicons 1AQ30D and 1B were obtained using Replicon Assay B.

Structure (SMILES)	pIC50 (HCV replicon 1B)	pIC50 (HCV replicon 2B)	pIC50 (HCV replicon 1AY93H)	pIC50 (HCV replicon 1A)	pIC50 (HCV replicon 1AQ30D)	pIC50 (HCV replicon 1B; Hepatitis C virus)	IC50 (HCV replicon 1AQ30D)	pIC50 (HCV replicon 1A; Hepatitis C virus)	IC50 (HCV replicon 2B; Hepatitis C virus, read-out: 2B IC50 (nM), replicon 2B)	IC50 (HCV replicon 1AY93H; Hepatitis C virus, read-out: 1A Y93H IC50 (nM), replicon 1AY93H)
COC(=O)NC(C(=O)N1[C@@H]2C[C@@H]2C[C@H]1c1ncc(-c2ccc3c(c2)cc2n3C(c3cnc(C4CC4)s3)Oc3cc(-c4cnc([C@@H]5CCCN5C(=O)[C@@H](NC(=O)OC)C(C)C)[nH]4)cc(F)c3-2)[nH]1)C(C)(C)F (single isomer, unassigned) [Compound 28]	11.70	9.69	9.94	11.92	9.04					
COC(=O)NC(C(=O)N1CCC[C@H]1c1ncc(-c2ccc3c(c2)cc2n3C(c3cnc(C)s3)Oc3cc(-c4cnc([C@@H]5CCCN5C(=O)[C@@H](NC(=O)OC)C(C)C)[nH]4)cc(F)c3-2)[nH]1)C1C[C@@H](C)O[C@@H](C)C1 (single isomer, unassigned) [Compound 30]		10.85	10.93	11.55		11.52	0.112 nM			
COC(=O)N[C@H](C(=O)N1CCC[C@H]1c1ncc(-c2cc(F)c3c(c2)OC(c2cnc(-c4ccc(F)cc4)s2)n2c-3cc3cc(-c4cnc([C@@H]5CCCN5C(=O)[C@@H](NC(=O)OC)C(C)C)[nH]4)ccc32)[nH]1)C(C)C (single isomer, unassigned) [Compound 31]		11.40	11.20			12.00	0.046 nM	11.92		
COC(=O)N[C@H](C(=O)N1CCC[C@H]1c1ncc(-c2cc(F)c3c(c2)OC(c2ncc(-c4ccc(F)cc4)s2)n2c-3cc3cc(-c4cnc([C@@H]5CCCN5C(=O)[C@@H](NC(=O)OC)C(C)C)[nH]4)ccc32)[nH]1)C(C)C (single isomer, unassigned) [Compound 33]		9.13	8.93		8.78	12.00		11.77		
COC(=O)N[C@H](C(=O)N1CCC[C@H]1c1ncc(-c2cc(F)c3c(c2)OC(c2ncc(-c4ccc(F)cc4)s2)n2c-3cc3cc(-c4cnc([C@@H]5CCCN5C(=O)[C@@H](NC(=O)OC)C(C)C)[nH]4)ccc32)[nH]1)C(C)C (single isomer, unassigned) [Compound 34]	12.00	10.66	10.48	11.66	9.84					
CCc1ncc(C2Oc3cc(-c4cnc([C@@H]5CCCN5C(=O)[C@@H](NC(=O)OC)C(C)C)[nH]4)cc(F)c3-c3cc4cc(-c5cnc([C@@H]6CCCN6C(=O)C(NC(=O)OC)C6C[C@@H](C)O[C@@H](C)C6)[nH]5)ccc4n32)s1 (single isomer, unassigned) [Compound 36]		11.30	11.40	11.60		11.52	0.038 nM			
CCc1ncc(C2Oc3cc(-c4cnc([C@@H]5CCCN5C(=O)[C@@H](NC(=O)OC)C(C)C)[nH]4)cc(F)c3-c3cc4cc(-c5cnc([C@@H]6CCCN6C(=O)C(NC(=O)OC)C6CCOC(C)(C)C6)[nH]5)ccc4n32)s1 (single isomer, unassigned) [Compound 40]		11.22	11.41	11.46		11.52	0.03 nM			
COC(=O)N[C@H](C(=O)N1CCC[C@H]1c1ncc(-c2cc(F)c3c(c2)OC(c2cnc(C4CC4)s2)n2c-3c(F)c3cc(-c4cnc([C@@H]5CCCN5C(=O)[C@@H](NC(=O)OC)C5CCOCC5)[nH]4)ccc32)[nH]1)C(C)C (single isomer, unassigned) [Compound 41]		10.40	9.90		8.99	11.70		11.77		
COC(=O)N[C@H](C(=O)N1CCC[C@H]1c1ncc(-c2cc(F)c3c(c2)OC(c2cnc(C4CC4)s2)n2c-3c(F)c3cc(-c4cnc([C@@H]5CCCN5C(=O)[C@@H](NC(=O)OC)C5CCOCC5)[nH]4)ccc32)[nH]1)C(C)C (single isomer, unassigned) [Compound 42]	11.70	10.77	10.85	11.80	9.91					
COC(=O)N[C@H](C(=O)N1CCC[C@H]1c1ncc(-c2cc(F)c3c(c2)OC(c2ncc(-c4ccc(C#N)cc4)s2)n2c-3cc3cc(-c4cnc([C@@H]5CCCN5C(=O)[C@@H](NC(=O)OC)C(C)C)[nH]4)ccc32)[nH]1)C(C)C (single isomer, unassigned) [Compound 43]		11.40	11.09		10.11	11.70		11.64		
COC(=O)N[C@H](C(=O)N1CCC[C@H]1c1ncc(-c2cc(F)c3c(c2)OC(c2cnc(-c4ccc(OC)cc4)s2)n2c-3cc3cc(-c4cnc([C@@H]5CCCN5C(=O)[C@@H](NC(=O)OC)C(C)C)[nH]4)ccc32)[nH]1)C(C)C (single isomer, unassigned) [Compound 45]		10.96	11.22			12.00	0.072 nM	11.74		
COC(=O)N[C@H](C(=O)N1CCC[C@H]1c1ncc(-c2cc(C)c3c(c2)OC(c2ncc(C4CC4)s2)n2c-3cc3cc(-c4cnc([C@@H]5CCCN5C(=O)[C@@H](NC(=O)OC)C5C[C@@H](C)O[C@@H](C)C5)[nH]4)ccc32)[nH]1)C(C)C (single isomer, unassigned) [Compound 47]		10.24	8.95		8.66	11.52		11.70		
COC(=O)N[C@H](C(=O)N1CCC[C@H]1c1ncc(-c2cc(C)c3c(c2)OC(c2ncc(C4CC4)s2)n2c-3cc3cc(-c4cnc([C@@H]5CCCN5C(=O)[C@@H](NC(=O)OC)C5C[C@@H](C)O[C@@H](C)C5)[nH]4)ccc32)[nH]1)C(C)C (single isomer, unassigned) [Compound 48]	11.70	10.80	10.27	11.82	9.51					
COC(=O)NC(C(=O)N1CCC[C@H]1c1ncc(-c2ccc3c(c2)cc2n3C(c3ncc(C4CC4)s3)Oc3cc(-c4cnc([C@@H]5CCCN5C(=O)[C@@H](NC(=O)OC)C(C)C)[nH]4)cc(F)c3-2)[nH]1)C1C[C@@H](C)O[C@@H](C)C1 (single isomer, unassigned) [Compound 51]						11.52	0.152 nM	11.66	0.025 nM	0.0223 nM
COC(=O)N[C@H](C(=O)N1CCC[C@H]1c1ncc(-c2cc(F)c3c(c2)OC(c2cnc(-c4ccc(Cl)cc4)s2)n2c-3cc3cc(-c4cnc([C@@H]5CCCN5C(=O)[C@@H](NC(=O)OC)C(C)C)[nH]4)ccc32)[nH]1)C(C)C (single isomer, unassigned) [Compound 53]		11.40	11.66			12.00	0.07 nM	11.80		
COC(=O)NC(C(=O)N1CCC[C@H]1c1ncc(-c2ccc3c(c2)cc2n3C(c3cnc(C(C)C)s3)Oc3cc(-c4cnc([C@@H]5CCCN5C(=O)[C@@H](NC(=O)OC)C(C)C)[nH]4)cc(F)c3-2)[nH]1)C1C[C@@H](C)O[C@@H](C)C1 (single isomer, unassigned) [Compound 57]		11.30	11.70	11.80		12.00	0.028 nM			
CCCc1ncc(C2Oc3cc(-c4cnc([C@@H]5CCCN5C(=O)[C@@H](NC(=O)OC)C(C)C)[nH]4)cc(F)c3-c3cc4cc(-c5cnc([C@@H]6CCCN6C(=O)C(NC(=O)OC)C6CCOC(C)(C)C6)[nH]5)ccc4n32)s1 (single isomer, unassigned) [Compound 59]	11.52	9.88	9.88	11.59	9.12					
